# Measurements from patent publication EP0139358B1, “N6-substituted diarylalkyl adenosines, processes for their production and pharmaceutical compositions comprising the same” (priority 1983, dated 1985).
# Like-named read-outs stand apart in the source and are kept apart here.
# How the values were obtained:
# conscious rat = assay: Antihypertensive evaluation (AHP3): aortic blood pressure and heart rate; format: in vivo; details: read-out: AHP3 BP LAD
# From the text: […] EVALUATION (AHP3)
# This test procedure is described in the following paragraphs.
# A Method for the Direct Monitoring of Aortic Blood Pressure and Heart Rate from Conscious Rats
# The continuous monitoring of pulsatile blood pressure (BP) from unrestrained conscious rats surgically equipped with polyethylene cannulas was accomplished by means of a computer assisted data capture scheme (CADCS). The absic elements of the methodology are the cannulation procedure and the CADCS.
# Cannulation Procedure: Rats were anesthetized with Telazol (1:1 tiletamine HCI and zolazepam HCI); 20-40 mg/kg IM and the descending aorta exposed via a midline incision. Cannulas fabricated from polyethylene tubing were inserted into the aorta via an undersized puncture hole below the renal arteries. The puncture hole was made by a 23 G disposable needle with a section of the aorta clamped off above and below the puncture site. The cannulas, consisting of a PE100 (0.86 mm ID) body and a PE50 (0.58 mm ID) tip, were attached to a trocar, inserted through the psoas muscle, and passed subcutaneously along the midline of the back and externalized between the ears. The cannulas were anchored to the psoas muscle and between the scalulae (3-0 green braided suture). The midline incision was closed in two steps (muscle first, skin second) using continuous over-and over sutures (4-0 chronic). Each rat was then given penicillin 30,000 units subcutaneously (Penicillin G Procaine Sterile Suspension).
# The rats were fitted with a harness-spring-swivel assembly designed to protect the cannula and to provide the rat relative freedom of movement. The harnesses were fabricated from nylon hook and loop tape cemented to a metal plate to which spring wires (18-8 stainless steel), were attached to brass swivels. Each polyethylene cannula was channeled through a spring and connected through a swivel to a pressure transducer (Model P23Gb; Statham Instruments; Hato Rey, Puerto Rico) and an infusion pump (Sage model 234-7; Orion Research, Cambridge, Ma) by means of PE100 tubing. While on test, each rat received a continuous slow infusion of heparinized saline solution (approximately 400 I or 40 units of heparin per 24 hour period) to prevent clot formation. Additional "flushes" of the cannula with heparinized saline were carried out when the aortic pulse pressure (systolic minus diastolic) was less than 25 mm Hg.
# CADCS: The pulsatile blood pressure and heart rate of each of 32 rats was monitored every minute by means of two in-laboratory microcomputers communicating directly with a data concentrator computer. The data were first stored on the data concentrator disk and then transferred to a magnetic tape for analysis and report generation by the main research computer. The overall scheme involved modulating the primary signal from the pressure transducer, generating the primary data set of the one-minute values for systolic, diastolic, and mean blood pressures and heart rate by the in-lab microcomputer and the storage, analysis, and report generation by the main research computer.
# The transducers were connected to analog signal conditioning modules. The modules providing a regulated excitation voltage for the transducers, amplification as required to interface the microprocessors and an active low pass filter to compensate for the pressure wave form distortion produced by the flexible, fluid filled, narrow cannula.
# The microcomputers (one for each of two groups of 16 rats) were connected to the input components through the module interface units, an analog-to-digital converter for the pressure wave form signal and the digital inputs for the dose and event marker switches. The microcomputer controlled the sequential acquisition of data from the modular interface units through an internal synchronous time-of-day clock/ time base generator. […]
# rat heart = assay: Coronary blood flow (PCS2A): isolated perfused heart
# Procedure: CORONARY BLOOD FLOW (PCS2A)
# Male rats (400-600 gms) are pretreated with Na haparin 2000 units and anesthetized with Na pentobarbital (50 mg/kg) administered intraperitoneally. Once anesthetized, the rat heart is rapidly excised, the ascending aorta fitted to the aortic perfusion cannula, and […] with a ligature. The coronary arteries are perfused initially at a rate of about 15 ml/min for two to three minutes, afterwhich they are perfused at constant pressure of 70 mm Hg and temperature of 37°C. The electrocardiogram (ECG) is recorded using two platinum electrodes positioned at the base and apex of the left ventricle. A second heart is excised, cannulated, and perfused by the same method outlined above. Both hearts are tested in parallel. The standard physiological salt solution (PSS) is a modified Krebs-Hanseleit bicarbonate buffer of the following composition in mM concentration: NaCI, 127; NaHC03, 25; dextrose, 5.5; Na Pyruvate, 2.0: KCI, 4.7; MgS04, 1.1; KH 2P04, 1.2; CaCl2·2H2O, 2.5; CaNa2 EDTA, 0.05.
# A 30-minute stabilization period is observed before starting the test protocol.
# The microprocessor control system is a servo mechanism which permits coronary perfusion pressure (CPP) and drug concentration to be maintained constant independent of changes in coronary flow. The level at which CPP and drug concentration are maintained can be changed by commands communicated through the microprocessor keyboard. Dose-response curves are carried out by perfusing concentrated drug solution (DC) at rates proportional to total coronary flow (CFT). Drug concentrations are increased by proportionate increases in the rate of DC infusion over CFT via the microprocessor keyboard. The proportional flow rates for DC:CFT is about .0002:1 at the low end and .02: at the high end of the dose-response curve. Dose-response curves encompassing at least two log doses are carried out by preparing two DCs with a concentration difference of 1:100. Following the first dose range of two log doses, the DC are switched, proportional pumping rate adjusted, and the dose-response curve continued for another two log doses. The standard dose-response curve is carried out in one-half log dose increments starting at a subthreshold dose and ending at a dose which produces near maximal response in activity. Standard reference compounds are tested over the range of 10-^9 to 10-^6M.
# Measurements are for heart rate (HR) and coronary flow (CF). Units are: HR, beats/minute (bpm) and CF, milliliters/minute (ml/min). HR is calculated from the ECG strip chart recording and CF is calculated by recording analog outputs from pumps 1 and 2. Outputs from pump #1 = CFT and the output from pump #2 = CF for heart B (CFg). CF for heart A (CFA) is calculated (CFT - CFB = CFA).
# Using the above technique, the effects of the compound of Examples 1 and 2 are as follows: […]
# [1] = system: Long-Evans rats or squirrel-monkeys; assay: Antipsychotic lever-push shock avoidance protocol (SIDR); format: in vivo; details: Rattus norvegicus; shock avoidance lever pushing; read-out: SIDR ED50
# Procedure: Representative compounds of the invention (identified in the Examples) were also tested for antipsychotic activity according to the following protocol (SIDR). […] Mature male Long-Evans rats or squirrel-monkeys are conditioned to push a lever in order to avoid a painful electric footshock. If the animal fails to push the lever, he receives a shock every ten seconds until the lever is pushed. Shocks can be terminated by pushing the lever. Thereafter, as long as the lever is pushed at least once every 20 seconds, there will be no shock. Each animal acts as its own control; one weekly session is used to establish baseline behavior and another session later in the week is used as a drug session. Once patterns of avoidance are established, the effects of standard and unknown compounds are studied. All events are electronically programmed and the response to these events counted or used as feedback to the program.
# Swiss-Webster male mice [2] = assay: Mouse Activity and Screen Test (MAST): screen test (ST); format: in vivo; details: lowest dose at which an A rating (60-100%) is achieved, screen test; intraperitoneally
# Procedure: (§1) Treatments are administered intraperitoneally one hour prior to testing. […] Compounds are dissolved or suspended in 0.2% Methocel. Control animals are injected with Methocel.
# The compounds are identified in the Examples.
# Swiss-Webster male mice [3] = assay: Mouse Activity and Screen Test (MAST): inhibition of spontaneous locomotion (LI); format: in vivo
# Procedure: as §1
# Immediately following the screen test, the final phase of testing is initiated by placing each group of three mice in one actophotometer (Life Sciences, 22, 1067-1076, 1978). The actophotometer consists of a cylindrical chamber whose center is occupied by another cylinder which contains the illumination for six photocells located on the perimeter of the chamber. Six light-beam interruptions equal one count. Locomotor activity is recorded by computer at ten minute intervals for 60 minutes. […]
# [4] = lowest dose tested at which a >10% reduction in blood pressure for four consecutive hours is achieved, conscious rat
# [5] = coronary flow, isolated perfused rat heart, read-out: PCS2A CF ED50
# [6] = heart rate, isolated perfused rat heart, read-out: PCS2A HR ED50
# [7] = Mus musculus, ip; read-out: MAST LI LAD
SMILES,minimal effective dose (conscious rat; [4]) [mg/kg],EC50 (rat heart; [5]) [nM],EC50 (rat heart; [6]) [nM],ED50 [1] [mg/kg],MAST ST LAD (Swiss-Webster male mice [2]) [mg/kg],minimal effective dose (Swiss-Webster male mice [3]; [7]) [mg/kg],minimal effective dose (conscious rat; Rattus norvegicus) [mg/kg],"EC50 (rat heart; Rattus norvegicus, read-out: PCS2A CF ED50) [nM]","EC50 (rat heart; Rattus norvegicus, read-out: PCS2A HR ED50) [nM]","minimal effective dose (Swiss-Webster male mice [3]; Mus musculus, ip, read-out: MAST LI LAD) [mg/kg]"
"OC[C@H]1O[C@@H](n2cnc3c(NCC(c4ccccc4)c4ccc(F)cc4)ncnc32)[C@H](O)[C@@H]1O (some centres unmarked) [Example 10, N^6-(2-(4-Fluorophenyl)-2-phenylethyl)adenosine]",10,10,1400,8.6,>100,3,–,–,–,–
"OC[C@H]1O[C@@H](n2cnc3c(NCC(c4ccccc4)c4ccc(Cl)cc4)ncnc32)[C@H](O)[C@@H]1O (some centres unmarked) [Example 15, N^6-(2-(4-Chlorophenyl)-2-phenylethyl)adenosine]",10,30,> 3000,12.7,>100,10,–,–,–,–
"OC[C@H]1O[C@@H](n2cnc3c(NC(c4ccccc4)c4ccccc4)ncnc32)[C@H](O)[C@@H]1O [Example 5, N^6-Diphenylmethyladenosine, reference compound]",> 10,> 3000,> 3000,> 50,>100,100,–,–,–,–
"Nc1nc(NCC(c2ccccc2)c2ccc(F)cc2)c2ncn([C@@H]3O[C@H](CO)[C@@H](O)[C@H]3O)c2n1 (some centres unmarked) [Example 12, N^6-(2-(4-Fluorophenyl)-2-phenylethyl)-2-amino adenosine]",10,> 10000,> 10000,–,>100,30,–,–,–,–
"CC(CNc1nc(N)nc2c1ncn2[C@@H]1O[C@H](CO)[C@@H](O)[C@H]1O)(c1ccccc1)c1ccccc1 [Example 21, N'-(2,2-Diphenylpropyl)-2-aminoadenosine]",> 10,> 10000,> 10000,–,>100,30,–,–,–,–
"OC[C@H]1O[C@@H](n2cnc3c(NCC(O)(c4ccccc4)c4ccccc4)ncnc32)[C@H](O)[C@@H]1O [Example 22, N^6-(2,2-Diphenyl-2-hydroxyethyl)adenosine]",10,> 1000,500,–,100,1,–,–,–,–
"OC[C@H]1O[C@@H](n2cnc3c(NCCCCC(c4ccccc4)c4ccccc4)ncnc32)[C@H](O)[C@@H]1O [Example 7, N^6-(5,5-Diphenylpentyl)adenosine]",> 10,> 3000,3000,–,>100,100,–,–,–,–
"OC[C@H]1O[C@@H](n2cnc3c(NCCCC(c4ccccc4)c4ccccc4)ncnc32)[C@H](O)[C@@H]1O [Example 6, N^6-(4,4-Diphenylbutyl)adenosine]",> 30,14,> 1000,–,>100,100,–,–,–,–
"O=[N+]([O-])c1ccc(C(CNc2ncnc3c2ncn3[C@@H]2O[C@H](CO)[C@@H](O)[C@H]2O)c2ccc([N+](=O)[O-])cc2)cc1 [Example 20, N^6-(2,2-Di-(4-nitrophenyl)ethyl)adenosine]",–,–,–,–,>100,–,> 10,300,> 3000,100
"COc1ccc(C(CNc2ncnc3c2ncn3[C@@H]2O[C@H](CO)[C@@H](O)[C@H]2O)c2ccccc2)cc1 (some centres unmarked) [Example 19, N^6-(2-(4-Methoxyphenyl)-2-phenylethyl)adenosine]",10,30,> 3000,–,30,10,–,–,–,–
